Test results: patent publication EP1038880B1, “Androstanes and pregnanes for allosteric modulation of GABA receptor” (priority 1994, dated 1995)

Molecular target: GR complex
Test: [35S]TBPS binding assay (inhibition of [35S]TBPS binding, cerebral cortex P2 homogenate)
Parameters: species or system rat
Settings: for IC50: 2 nM [35S]TBPS, rat cerebral cortex P2 homogenate; for IMAX: maximum inhibition of [35S]TBPS binding
Experimental: We performed several experiments to determine the nature of the modulation of [^35S]TBPS as affected by the compounds of the invention.
These procedures were performed as follows:
Brains from male Sprague-Dawley rats were removed immediately following sacrifice and the cerebral cortices dissected over ice. […] Briefly, the cortices were gently homogenized in 0.32 M sucrose followed by centrifugation at 1000 x g for 10 minutes. The supernatant was collected and centrifuged at 9000 x g for 20 minutes. The resultant P2 pellet was suspended as a 10% (original wet weight/volume) suspension in 50 mM Na/K phosphate buffer (pH 7.4) 200 mM NaCl to form the homogenate.
One hundred microliter […] aliquots of the P2 homogenate (0.5 milligrams (mg) protein) were incubated with 2 nanomolar (nM) [^35S]TBPS (70-110 curies/millimole; New England Nuclear, Boston, MA) in the presence or absence of the naturally occurring steroids or their synthetic derivatives to be tested. The tested compounds were dissolved in dimethylsulfoxide (Baker Chem. Co., Phillipsbury, NJ) and added to the incubation mixture in 5 µL aliquots. The incubation mixture was brought to a final volume of 1 mL with buffer. Non-specific binding was defined as binding in the presence of […] TBPS. The effect and specificity of GABA (Sigma Chem. Co., St. Louis, MO) was evaluated by performing all assays in the presence of GABA plus (+)bicuculline (Sigma Chem. Co.). maintained at 25°C for 90 minutes (steady state conditions) were terminated by rapid filtration through glass fiber filters (No. 32, Schleicher and Schuell, Keene, NH). Filter-bound radioactivity was quantitated by liquid scintillation spectrophotometry.
Various compounds were screened to determine their potential as modulators of [^35S]TBPS binding in vitro. These assays were performed in accordance with the above discussed procedures. […] It is an indication of a compound's in vitro potency. Maximum inhibition is an indication of a compound's in vitro efficacy.

[1] = listed as 3α-Hydroxy-3β-(3'-hydroxyphenyl)-ethynyl-5β-pregnan-20-one

C[C@]12CC[C@](O)(C#CCCO)C[C@H]1CC[C@@H]1[C@@H]2CC[C@]2(C)[C@@H](C(=O)Cn3cnnn3)CC[C@@H]12 [3α-hydroxy-3β-(4-hydroxybutyn-1-yl)-21-(tetrazol-1-yl)-5β-pregnan-20-one]
IC50: 93 nM
IMAX: 101%

CC1(O)CCC2(C)C(CCC3C2CCC2(C)C(C(=O)Cn4nccn4)CCC32)C1 (stereo not drawn) [3α-hydroxy-3β-methyl-21(2'H-1',2',3'-triazol-2'-yl)-5α-pregnan-20-one]
IC50: 85 nM
IMAX: 99%

C[C@@]1(O)CC[C@@]2(C)[C@@H](CC[C@@H]3[C@@H]2CC[C@]2(C)[C@@H](C(=O)Cn4ccnn4)CC[C@@H]32)C1 [3α-hydroxy-3β-methyl-21-(1',2',3'-triazol-1'-yl)-5α-pregnan-20-one]
IC50: 136 nM
IMAX: 99%

CC(=O)[C@H]1CC[C@H]2[C@@H]3CC[C@@H]4C[C@@](O)(C#Cc5ccccc5)CC[C@]4(C)[C@H]3CC[C@]12C [3α-hydroxy-3β-phenylethynyl-5β-pregnan-20-one]
IC50: 98 nM
IMAX: 101%

CC12CCC(O)CC1CCC1C2CCC2(C)C(C(=O)Cn3cnc4ccccc43)CCC12 (stereo not drawn) [3α-hydroxy-21-(1'-benzimidazolyl)5β-pregnan-20-one]
IC50: 53 nM
IMAX: 100%

C[C@]12CC[C@@H](O)C[C@@H]1CC[C@@H]1[C@@H]2CC[C@]2(C)[C@@H](C(=O)Cn3ccnc3)CC[C@@H]12 [3α-hydroxy-21-(1'-imidazolyl)-5α-pregnan-20-one]
IC50: 71 nM
IMAX: 99%

C[C@]12CC[C@@H](O)C[C@@H]1CC[C@@H]1[C@@H]2CC[C@]2(C)[C@@H](C(=O)Cn3cccn3)CC[C@@H]12 [3α-hydroxy-21-(1'-pyrazolyl)-5α-pregnan-20-one]
IC50: 100 nM
IMAX: 98%

C[C@]12CC[C@@H](O)C[C@H]1CC[C@@H]1[C@@H]2CC[C@]2(C)[C@@H](C(=O)Cn3cnnn3)CC[C@@H]12 [3α-hydroxy-21-(1'H-1,2,3,4-tetrazol-1'-yl)-5β-pregnan-20-one]
IC50: 227 nM
IMAX: 60%

C[C@]12CC[C@@H](O)C[C@H]1CC[C@@H]1[C@@H]2CC[C@]2(C)[C@@H](C(=O)Cn3cnc4ncncc43)CC[C@@H]12 [3α-hydroxy-21-(7'H-purin-7'-yl)-5β-pregnan-20-one]
IC50: 430 nM
IMAX: 71%

C[C@]12CC[C@@H](O)C[C@H]1CC[C@@H]1[C@@H]2CC[C@]2(C)[C@@H](C(=O)Cn3cnc4cncnc43)CC[C@@H]12 [3α-hydroxy-21-(9'H-purin-9'-yl-5β-pregnan-20-one]
IC50: 69 nM
IMAX: 59%

CC12CCC(O)CC1CCC1C2CCC2(C)C(C(=O)Cn3ccnc3C=O)CCC12 (stereo not drawn) [3α-hydroxy-21-[1H-(2'-formyl)imidazol-1-yl]-5-pregnan-20-one]
IC50: 213 nM
IMAX: 81%

Cc1nccn1CC(=O)[C@H]1CC[C@H]2[C@@H]3CC[C@@H]4C[C@H](O)CC[C@]4(C)[C@H]3CC[C@]12C [3α-hydroxy-21-[1H-(2-methyl)imidazol-1-yl)-5β-pregnan-20-one]
IC50: 222 nM
IMAX: 95%

CC(=O)[C@H]1CC[C@H]2[C@@H]3CC[C@@H]4C[C@@](O)(C#Cc5ccc(F)cc5F)CC[C@]4(C)[C@H]3CC[C@]12C [3β-(2', 4'-difluorophenylethynyl)-3α-hydroxy-5β-pregnan-20-one]
IC50: 109 nM
IMAX: 102%

CC(=O)[C@H]1CC[C@H]2[C@@H]3CC[C@@H]4C[C@@](O)(CCc5ccccc5O)CC[C@]4(C)[C@H]3CC[C@]12C [3β-(2'-Hydroxyphenyl)ethyl-3α-hydroxy-5β-pregnan-20-one]
IC50: 101 nM
IMAX: 83%

COc1ccc(CC[C@@]2(O)CC[C@@]3(C)[C@H](CC[C@@H]4[C@@H]3CC[C@]3(C)[C@@H](C(C)=O)CC[C@@H]43)C2)cc1OC [3β-(3',4'-Dimethoxyphenylethyl)-3α-hydroxy-5β-pregnan-20-one]
IC50: 507 nM
IMAX: 66%

COc1ccc(C#CC2(O)CCC3(C)C(CCC4C3CCC3(C)C(C(C)=O)CCC43)C2)cc1OC (stereo not drawn) [3β-(3',4'-Dimethoxyphenylethynyl)-3α-hydroxy-5β-pregnan-20-one]
IMAX: 106%

CC(=O)c1cccc(C#C[C@@]2(O)CC[C@@]3(C)[C@H](CC[C@@H]4[C@@H]3CC[C@]3(C)[C@@H](C(C)=O)CC[C@@H]43)C2)c1 [3β-(3'-Acetylphenylethynyl)-3α-hydroxy-5β-pregnan-20-one]
IC50: 62 nM
IMAX: 100%

CC(=O)OCC#C[C@@]1(O)CC[C@@]2(C)[C@H](CC[C@@H]3[C@@H]2CC[C@]2(C)[C@@H](C(C)=O)CC[C@@H]32)C1 [3β-(3'-acetoxy-1'-propynyl)-3α-hydroxy-5β-pregnan-20-one]
IMAX: 104%

CC(=O)[C@H]1CC[C@H]2[C@@H]3CC[C@@H]4C[C@@](O)(C#CCO)CC[C@]4(C)[C@H]3CC[C@]12C [3β-(3'-hydroxy-1'-propynyl)-3α-hydroxy-5β-pregnan-20-one]
IC50: 137 nM
IMAX: 93%

CC(=O)[C@H]1CC[C@H]2[C@@H]3CC[C@@H]4C[C@@](O)(C#Cc5cccc(O)c5)CC[C@]4(C)[C@H]3CC[C@]12C [3β-(3'-hydroxyphenylethynyl)-3α-hydroxy-5β-pregnan-20-one]
IC50: 407 nM
IC50 [1]: 619 nM
IMAX: 99%
IMAX [1]: 98%

CC(=O)OCCC#CC1(O)CCC2(C)C(CCC3C2CCC2(C)C(C(C)=O)CCC32)C1 (stereo not drawn) [3β-(4'-Acetoxy-1'-butynyl)-3α-hydroxy-5β-pregnan-20-one]
IC50: 20 nM
IMAX: 96%

CC(=O)Oc1ccc(C#C[C@@]2(O)CC[C@@]3(C)[C@H](CC[C@@H]4[C@@H]3CC[C@]3(C)[C@@H](C(C)=O)CC[C@@H]43)C2)cc1 [3β-(4'-Acetoxyphenylethynyl)-3α-hydroxy-5β-pregnan-20-one]
IC50: 1430 nM
IMAX: 100%

CC(=O)c1ccc(C#CC2(O)CCC3C(CCC4C3CCC3(C)C(C(C)=O)CCC43)C2)cc1 (stereo not drawn) [3β-(4'-Acetylphenyl)ethynyl-3α-hydroxy-5β-19-norpregnan-20-o] [3β-(4'-Acetylphenylethynyl)-3α-hydroxy-19-nor-5β-pregnan-20-one]
IC50: 6 nM
IMAX: 90%

CC(=O)c1ccc(C#CC2(O)CCC3C(CCC4C3CCC3(C)C(C(C)=O)CCC43)C2)cc1 (stereo not drawn) [3β-(4'-Acetylphenyl)ethynyl-3α-hydroxy-19-nor-20-one]
IC50: 14 nM
IMAX: 103%

CC(=O)c1ccc(C#C[C@@]2(O)CC[C@@]3(C)[C@@H](CC[C@@H]4[C@@H]3CC[C@]3(C)[C@@H](C(C)=O)CC[C@@H]43)C2)cc1 [3β-(4'-Acetylphenylethynyl)-3α-hydroxy-5α-pregnan-20-one]
IC50: 5 nM
IMAX: 93%

CC(=O)[C@H]1CC[C@H]2[C@@H]3CC[C@@H]4C[C@@](O)(C#CCCC(N)=O)CC[C@]4(C)[C@H]3CC[C@]12C [3β-(4'-Carboxamidobutynyl)-3α-hydroxy-5β-pregnan-20-one]
IC50: 2340 nM
IMAX: 102%

CC(=O)[C@H]1CC[C@H]2[C@@H]3CC[C@@H]4C[C@@](O)(C#Cc5ccc(C(N)=O)cc5)CC[C@]4(C)[C@H]3CC[C@]12C [3β-(4'-Carboxamidopheny)ethynyl-3α-hydroxy-5β-pregnan-20-one]
IC50: 2240 nM
IMAX: 98%

CCOC(=O)c1ccc(C#CC2(O)CCC3(C)C(CCC4C3CCC3(C)C(C(C)=O)CCC43)C2)cc1 (stereo not drawn) [3β-(4'-Carboxyphenylethynyl)-3α-hydroxy-5α-pregnan-20-one ethyl ester]
IC50: 7 nM
IMAX: 79%

CCOC(=O)c1ccc(C#CC2(O)CCC3C(CCC4C3CCC3(C)C(C(C)=O)CCC43)C2)cc1 (stereo not drawn) [3β-(4'-Carboxyphenylethynyl)-3α-hydroxy-19-nor-5β-pregnan-20-one ethyl ester]
IC50: 15 nM
IMAX: 94%

CC(=O)[C@H]1CC[C@H]2[C@@H]3CC[C@@H]4C[C@@](O)(C#CCCO)CC[C@]4(C)[C@H]3C(=O)C[C@]12C [3β-(4'-Hydroxy-1'-butynyl)-3α-hydroxy-5β-pregnan-11,20-dione]
IC50: 268 nM
IMAX: 102%

CC(=O)C1CCC2C3CCC4CC(O)(C#Cc5ccc(O)cc5)CCC4(C)C3CCC12C (stereo not drawn) [3β-(4'-Hydroxyphenylethynyl)-3α-hydroxy-5β-pregnan-20-one]
IC50: 1550 nM
IMAX: 88%

CC(=O)[C@H]1CC[C@H]2[C@@H]3CC[C@@H]4C[C@@](O)(C#Cc5ccc([N+](=O)[O-])cc5)CC[C@]4(C)[C@H]3CC[C@]12C [3β-(4'-Nitrophenylethynyl)-3α-hydroxy-5β-pregnan-20-one]
IC50: 46 nM
IMAX: 103%

CC(=O)[C@H]1CC[C@H]2[C@@H]3CC[C@@H]4C[C@@](O)(C#Cc5ccc(Cl)cc5)CC[C@]4(C)[C@H]3CC[C@]12C [3β-(4'-chlorophenylethynyl)-3α-hydroxy-5β-pregnan-20-one]
IC50: 58 nM
IMAX: 89%
